According to ChEMBL document CHEMBL1152531, “Amphotericin B-induced ion flux is markedly attenuated in phosphatidylglycerol membrane as evidenced by a newly devised fluorometric method” (Bioorg Med Chem, 2009):
Calls of active or inactive are those of the source. The rule behind the calls is not given here.

Tests used:
[1] = Membrane permeabilizing activity across ergosterol-containing 1-palmitoyl-2-oleoyl-sn-glycero-3-phosphocholine liposome assessed as K+ ion influx at compound to lipid ratio of 0.0001 to 0.001 after 18 hrs by BCECF staining-based fluorometric method; format: physicochemical; conditions: artificial membrane
[2] = (§1) Membrane permeabilizing activity across large unilamellar vesicle containing 1-palmitoyl-2-oleoyl-sn-glycero-3-phosphatidylglycerol and 10% 1-palmitoyl-2-oleoyl-sn-glycero-3-phosphocholine assessed as K+ ion influx at compound to lipid ratio of 0.001 to 0.01 after 18 hrs by BCECF staining-based fluorometric method; format: physicochemical
Lipid bilayer [3] = test: Binding affinity to 1-palmitoyl-2-oleoyl-sn-glycero-3-phosphatidylglycerol bilayer membrane at 6.3 uM after 18 hrs by UV spectroscopy
[4] = as §1, with “30%” for “10%”; format: physicochemical
[5] = Membrane permeabilizing activity across cholesterol-containing 1-palmitoyl-2-oleoyl-sn-glycero-3-phosphocholine liposome assessed as K+ ion influx at compound to lipid ratio of 0.0001 to 0.001 after 18 hrs by BCECF staining-based fluorometric method; format: physicochemical; conditions: artificial membrane
[6] = Membrane permeabilizing activity across 1-palmitoyl-2-oleoyl-sn-glycero-3-phosphocholine liposome assessed as K+ ion influx at compound to lipid ratio of 0.0001 to 0.001 after 18 hrs by BCECF staining-based fluorometric method; format: physicochemical; conditions: artificial membrane
[7] = Binding affinity to bilayer membrane of 1-palmitoyl-2-oleoyl-sn-glycero-3-phosphatidylglycerol and 30% 1-palmitoyl-2-oleoyl-sn-glycero-3-phosphocholine at 6.3 uM after 18 hrs by UV spectroscopy
Lipid bilayer [8] = test: Binding affinity to 1-palmitoyl-2-oleoyl-sn-glycero-3-phosphocholine bilayer membrane at 6.3 uM after 18 hrs by UV spectroscopy
[9] = Membrane permeabilizing activity across 1-palmitoyl-2-oleoyl-sn-glycero-3-phosphatidylglycerol liposome assessed as K+ ion influx at compound to lipid ratio of 0.001 to 0.01 after 18 hrs by BCECF staining-based fluorometric method; format: physicochemical; conditions: artificial membrane
[10] = Membrane permeabilizing activity across 1-palmitoyl-2-oleoyl-sn-glycero-3-phosphocholine liposome assessed as K+ ion influx at compound to lipid ratio of 0.001 to 0.01 after 18 hrs by BCECF staining-based fluorometric method; format: physicochemical; conditions: artificial membrane

With `C[C@@H]1[C@H](O)[C@@H](C)/C=C/C=C/C=C/C=C/C=C/C=C/C=C/[C@H](O[C@@H]2O[C@H](C)[C@@H](O)[C@H](N)[C@@H]2O)C[C@@H]2O[C@](O)(C[C@@H](O)C[C@@H](O)[C@H](O)CC[C@@H](O)C[C@@H](O)CC(=O)O[C@H]1C)C[C@H](O)[C@H]2C(=O)O` [AMPHOTERICIN B] the Activity [1] was “Active”, the Activity [2] was “Active” and the Activity (Lipid bilayer [3]) was “Active”. The Activity [4] was “Active”, the Activity [5] was “Not Active” and the Activity [6] was “Not Active”. For the same compound, the Activity [7] was “Active”, the Activity (Lipid bilayer [8]) was “Active” and the Activity [9] was “Not Active”. The Activity [10] was “Active”.
